Assay results: US11512073B2, “Benzimidazole derivatives, pharmaceutical composition comprising the same, and use thereof” (Chongqing University of Arts and Sciences, priority 2020, dated 2022)

Assays:
MDA-MB-231 cells = experiment: MTT cell viability assay; assay type: cell-based; conditions: Homo sapiens
Procedure: (§1) Compounds were dissolved in a hydrous dimethylsulfoxide (DMSO, Life technologies) to obtain a 50 mM stock solution, which was then added to the culture medium at a concentration range of 6.25-100 μM. Cells were treated with compounds at indicated concentrations for 48 h, and 0.1% DMSO was used as the vehicle. Z-VAD-FMK was purchased from Selleckchem (Houston, Tex.); The reagents including 3-(4,5-dimethylthiazol-2-yl)-2,5-diphenyltetrazolium bromide (MTT), dimethyl sulfoxide (DMSO), penicillin, streptomycin, propidium iodide (PI) were purchased from Sigma-Aldrich (MO, USA); All the primary antibodies used in this study were from Cell Signaling Technology (MA, USA) and the secondary antibodies were from LI-COR Biosciences (NE, USA).
(§2) Human triple negative breast cancer cell lines MDA-MB-231 and MDA-MB-468 were purchased from the American Type Culture Collection (ATCC, VA, USA). These cells were cultured in high-glucose DMEM (Gibco, USA) supplemented with 10% fetal bovine serum (FBS, Gibco) and 1% penicillin/streptomycin (Gibco) at 37° C. in a humidified incubator containing 5% CO2.
(§3) The antiproliferative activity of compounds was measured with the MTT assay. […] The absorbance value was determined at 570 nm using a microplate reader (Bio-Tek, VT, USA). Data were analyzed by GraphPad Prism 6. […]

MDA-MB-468 cells = experiment: MTT cell viability assay; assay type: cell-based; conditions: Homo sapiens
Procedure: as §1, §2, §3

HEK293T cells = experiment: HA-ubiquitin immunoprecipitation, H2A/H2AX ubiquitination; assay type: cell-based; conditions: 20 μM compound 7a for 24 h
Procedure: FIG. 6A: MDA-MB-231 and MDA-MB-468 were treated with indicated concentrations of compound 7a for 48 h, and then the immunofluorescence analysis was performed to detect γH2AX signal, the histone H2AX phosphorylation representing DSBs. Scale bar: 100 μm. FIG. 6B: γH2AX positive cells in (FIG. 6A) were counted and presented in the histogram. FIGS. 6C and 6D: following treatment with different concentrations (FIG. 6C) and times (FIG. 6D) of compound 7a, treated cell were lysed and phosphorylation/activation levels of ATM, NBS1, SMC1, γH2AX were examined by western blotting. Additionally, RNF8 and DNA repair proteins such as BRCA2 and RAD51 were detected using western. β-tubulin was employed as a loading control. […] P62 signal was measured by immunofluorescence analysis. […] HA-Ub was immunoprecipitated with HA binding beads and ubiquitinated H2A/H2AX was detected with anti-H2A/H2AX. […]
MDA-MB-231 and MDA-MB-468 cells were treated with the compound 7a (0, 5, 10 and 20 μmol/L) for 48 h, total protein was extracted using RIPA buffer (Beyotime, Shanghai, China) supplemented with protease/phosphatase inhibitor cocktail (Roche, Mannheim, Germany) at 4° C. for 30 min. The protein concentration was quantified by the BCA protein assay kit (Beyotime). […] The objective protein signal was obtained using an odyssey two-color infrared fluorescence imaging system (Li-cor, NE, USA). […]

MDA-MB-231 xenograft = experiment: Animal xenograft model; assay type: in vivo, NOD/SCID mice
Procedure: For the in vivo assay, six-week-old female NOD/SCID mice weighing 16-20 g were used, which were maintained in the SPF (Specific Pathogen Free) laboratory animal environment and under a normal daily light/dark cycle. During the experiment, 1×10^7 MDA-MB-231 cells were suspended in 100 μL serum-free DMEM and injected subcutaneously into the left groin region of the mice. Tumor volume was measured regularly. On day 22 post-tumor implanted, the NOD/SCID mice were randomly divided into three groups (n=6) on the basis of their tumor volume to insure a similar starting tumor volume of all the groups. The appropriate dose of compound 7a (5 mg/kg, 15 mg/kg) dissolved in 100 μL solvent (10% ethanol, 40% PEG400 and 50% corn oil) was administered every 3 days by intraperitoneal injection when the xenograft tumor volume attained around 100 mm^3, while the control group received equal volume solvent every 3 days in a similar method. The tumor size was measured once every 3 days with a caliper, and tumor size was calculated using the standard formula (L×W^2)/2, where L and W represents the length and width, respectively. The mice were sacrificed on Day 46 (Day 25 after treatment), and the xenograft tumors were obtained and weighed. Then the tumor tissues were collected and divided into two portions, one was fixed in 4% PFA and embedded by paraffin for Hematoxylin & eosin (HE) and immunohistochemical staining, anther was performed immunoblotting.
For immunohistochemistry, the embedded samples were sectioned and incubated with anti-Ki-67 overnight at 4° C. Then, the sections were incubated with HRP labeled secondary antibody and were observed under the Olympus BX73 microscope. Five fields were randomly selected to evaluate the positivity.

Compound: O=C(NC1CCCCC1)c1[nH]cnc1-c1nc2ccccc2[nH]1 [Compound 7a]
- IC50 (MDA-MB-231 cells): 8.3 µM
- IC50 (MDA-MB-468 cells): 6 µM
- formation of H2A poly-ubiquitin chains (HEK293T cells): significantly reduced
- tumor growth (tumor volume and weight) (MDA-MB-231 xenograft; 5 and 15 mg/Kg, intraperitoneal, after 24 days, dose dependent): considerably suppressed human TNBC tumor growth
- size of harvested tumors (MDA-MB-231 xenograft; 5 and 15 mg/kg, intraperitoneal, every 3 days): dramatically smaller than tumors from vehicle-treated control mice
- LC3B-II, p62, γH2AX and PARP in tumor tissue (MDA-MB-231 xenograft; immunoblotting of tumors, 5 and 15 mg/kg): concentration-dependent upregulation of LC3B-II, p62, γH2AX and PARP
- cell count (H&E) and Ki67 in tumor tissue (MDA-MB-231 xenograft; immunohistochemistry of tumors): significant decrease in cell count and Ki67
